Assay results taken from patent US7414040B2, “Thrombopoietin mimetics” (SmithKline Beecham Corporation, priority 2002, dated 2008).

Molecular target: T1, human Tpo-R (Homo sapiens, UniProt P40238)
T1 construct: expressed in transfected cells; host or cells: murine BaF3 cell line
T1 sequence (P40238 26-635): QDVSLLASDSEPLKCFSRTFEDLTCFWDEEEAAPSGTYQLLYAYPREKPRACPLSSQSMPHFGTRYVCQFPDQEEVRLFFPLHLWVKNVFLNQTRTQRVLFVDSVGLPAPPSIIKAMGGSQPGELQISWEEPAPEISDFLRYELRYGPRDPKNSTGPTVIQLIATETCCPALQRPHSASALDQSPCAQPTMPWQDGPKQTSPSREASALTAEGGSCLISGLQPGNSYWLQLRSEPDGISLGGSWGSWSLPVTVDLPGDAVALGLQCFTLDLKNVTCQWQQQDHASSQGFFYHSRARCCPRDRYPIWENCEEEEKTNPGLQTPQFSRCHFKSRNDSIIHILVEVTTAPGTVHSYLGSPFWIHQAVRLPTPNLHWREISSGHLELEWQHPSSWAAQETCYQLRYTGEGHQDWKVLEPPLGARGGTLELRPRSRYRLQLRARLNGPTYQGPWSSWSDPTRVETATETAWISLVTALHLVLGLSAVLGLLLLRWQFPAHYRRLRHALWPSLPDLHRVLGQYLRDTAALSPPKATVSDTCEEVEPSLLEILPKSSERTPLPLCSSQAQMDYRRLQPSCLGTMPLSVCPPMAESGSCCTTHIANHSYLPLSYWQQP
Experiment: BaF3/hTPO-R in vitro proliferation assay
Assay type: cell-based
Conditions: murine BaF3 cell line transfected with human Tpo-R
Description: Compounds of the present invention were tested for potency as mimetics of TPO in an in vitro proliferation assay using the murine BaF3 cell line transfected with human Tpo-R. Survival and growth is dependent on the presence of TPO.

EC50: 800 nM
activity, % TPO (relative to TPO): 160 % TPO
SMILES: CC1=NN(C2CCCCC2)C(=O)C1=NNc1cccc(-c2cccc(C(=O)O)c2)c1O [Example 1, 3′-[N′-(1-cyclohexyl-3-methyl-5-oxo-1,5-dihydro-pyrazol-4-ylidene)-hydrazino]-2′-hydroxy-biphenyl-3-carboxylic acid]
